Measurements published in patent EP1038880B1, “Androstanes and pregnanes for allosteric modulation of GABA receptor” (priority 1994, dated 1995).

Biological target: GR complex
Assay: [35S]TBPS binding assay (inhibition of [35S]TBPS binding, cerebral cortex P2 homogenate)
Parameters: species or system rat
Settings: for IC50: 2 nM [35S]TBPS, rat cerebral cortex P2 homogenate; for IMAX: maximum inhibition of [35S]TBPS binding
Description: We performed several experiments to determine the nature of the modulation of [^35S]TBPS as affected by the compounds of the invention.
These procedures were performed as follows:
Brains from male Sprague-Dawley rats were removed immediately following sacrifice and the cerebral cortices dissected over ice. […] Briefly, the cortices were gently homogenized in 0.32 M sucrose followed by centrifugation at 1000 x g for 10 minutes. The supernatant was collected and centrifuged at 9000 x g for 20 minutes. The resultant P2 pellet was suspended as a 10% (original wet weight/volume) suspension in 50 mM Na/K phosphate buffer (pH 7.4) 200 mM NaCl to form the homogenate.
One hundred microliter […] aliquots of the P2 homogenate (0.5 milligrams (mg) protein) were incubated with 2 nanomolar (nM) [^35S]TBPS (70-110 curies/millimole; New England Nuclear, Boston, MA) in the presence or absence of the naturally occurring steroids or their synthetic derivatives to be tested. The tested compounds were dissolved in dimethylsulfoxide (Baker Chem. Co., Phillipsbury, NJ) and added to the incubation mixture in 5 µL aliquots. The incubation mixture was brought to a final volume of 1 mL with buffer. Non-specific binding was defined as binding in the presence of […] TBPS. The effect and specificity of GABA (Sigma Chem. Co., St. Louis, MO) was evaluated by performing all assays in the presence of GABA plus (+)bicuculline (Sigma Chem. Co.). maintained at 25°C for 90 minutes (steady state conditions) were terminated by rapid filtration through glass fiber filters (No. 32, Schleicher and Schuell, Keene, NH). Filter-bound radioactivity was quantitated by liquid scintillation spectrophotometry.
Various compounds were screened to determine their potential as modulators of [^35S]TBPS binding in vitro. These assays were performed in accordance with the above discussed procedures. […] It is an indication of a compound's in vitro potency. Maximum inhibition is an indication of a compound's in vitro efficacy.

| Structure (SMILES) | IC50 [µM] | IMAX [%] |
| --- | --- | --- |
| CC(=O)[C@H]1CC[C@H]2[C@@H]3CC[C@@H]4C[C@@](O)(C#Cc5ccc([N+](=O)[O-])cc5)CC[C@]4(C)[C@H]3CC[C@]12C [3β-(4'-Nitrophenylethynyl)-3α-hydroxy-5β-pregnan-20-one] | 0.046 | 103 |
| C[C@]12CC[C@@H](O)C[C@H]1CC[C@@H]1[C@@H]2CC[C@]2(C)[C@@H](C(=O)Cn3cnc([N+](=O)[O-])c3)CC[C@@H]12 [3a-hydroxy-21-[1H-(4-nitro)imidazol-1-yl)-5β-pregnan-20-one] | 0.267 | 71 |
| CC(=O)[C@H]1CC[C@H]2[C@@H]3CC[C@@H]4C[C@@](O)(C#Cc5c(F)c(F)c(F)c(F)c5F)CC[C@]4(C)[C@H]3CC[C@]12C [3β-(pentafluorophenylethynyl)-3α-hydroxy-5β-pregnan-20-one] | 0.079 | 69 |
| CC(=O)OCC#C[C@@]1(O)CC[C@@]2(C)[C@H](CC[C@@H]3[C@@H]2CC[C@]2(C)[C@@H](C(C)=O)CC[C@@H]32)C1 [3β-(3'-acetoxy-1'-propynyl)-3α-hydroxy-5β-pregnan-20-one] | – | 104 |
| CC(=O)[C@H]1CC[C@H]2[C@@H]3CC[C@@H]4C[C@@](O)(C#CCc5ccccc5)CC[C@]4(C)[C@H]3CC[C@]12C [3α-Hydroxy-3β-(3'-phenyl-1'-propynyl)-5β-pregnan-20-one] | 0.103 | 95 |
| CC(=O)[C@H]1CC[C@H]2[C@@H]3CC[C@@H]4C[C@@](O)(C#CCCC#N)CC[C@]4(C)[C@H]3CC[C@]12C [3β-(4-cyano-1-butynyl)-3α-hydroxy-5β-pregnan-20-one] | 0.131 | 86 |
| CC(C)CCC[C@@H](C)[C@H]1CC[C@H]2[C@@H]3CC=C4C[C@@H](O)CC[C@]4(C)[C@H]3CC[C@]12C [Cholesterol, reference compound] | – | 0 |
| COc1ccc(C#CC2(O)CCC3(C)C(CCC4C3CCC3(C)C(C(C)=O)CCC43)C2)cc1 (stereo not drawn) [3β-(4'-methoxyphenylethynyl)-3α-hydroxy-5β-pregnan-20-one] | 0.047 | 89 |
| C[C@]12CC[C@@H](O)C[C@@H]1CC[C@@H]1[C@@H]2CC[C@]2(C)[C@@H](C(=O)Cn3ccc(=O)[nH]c3=O)CC[C@@H]12 [3α-Hydroxy-21-(1'-uracil)-5α-pregnan-20-one] | 0.434 | 90 |
| CC(=O)Oc1ccc(C#C[C@@]2(O)CC[C@@]3(C)[C@H](CC[C@@H]4[C@@H]3CC[C@]3(C)[C@@H](C(C)=O)CC[C@@H]43)C2)cc1 [3β-(4'-Acetoxyphenylethynyl)-3α-hydroxy-5β-pregnan-20-one] | 1.43 | 100 |
| CC(=O)C1CCC2C3CCC4CC(O)(C#CCn5cncn5)CCC4(C)C3CCC12C (stereo not drawn) [3α-Hydroxy-3β-[3'-(1H-1,2,4,-triazol-1yl)-1'-propynyl]-5β-pregnan-20-one] | 0.843 | 99 |
| CC(=O)[C@H]1CC[C@H]2[C@@H]3CC[C@@H]4C[C@@](O)(C#CCCO)CC[C@]4(C)[C@H]3C(=O)C[C@]12C [3β-(4'-Hydroxy-1'-butynyl)-3α-hydroxy-5β-pregnan-11,20-dione] | 0.268 | 102 |
| CC12CCC(O)(C#CCO)CC1CCC1C2CCC2(C)C(C(=O)Cn3nccn3)CCC12 (stereo not drawn) [3α-Hydroxy-3β-(3-hydroxypropyn-1-yl)-21-(1,2,3-triazol-2-yl)-5β-pregnan-20-one] | 0.43 | 107 |
| CC(=O)[C@H]1CC[C@H]2[C@@H]3CC[C@@H]4C[C@@](O)(CCc5ccccc5O)CC[C@]4(C)[C@H]3CC[C@]12C [3β-(2'-Hydroxyphenyl)ethyl-3α-hydroxy-5β-pregnan-20-one] | 0.101 | 83 |
| CC12CCC(O)CC1CCC1C2CCC2(C)C(C(=O)Cn3ccnc3C=O)CCC12 (stereo not drawn) [3α-hydroxy-21-[1H-(2'-formyl)imidazol-1-yl]-5-pregnan-20-one] | 0.213 | 81 |
| C[C@]12CC[C@@H](O)C[C@@H]1CC[C@@H]1[C@@H]2CC[C@]2(C)[C@@H](C(=O)CSS(=O)(=O)[O-])CC[C@@H]12.[Na+] [Sodium S-(3α-hydroxy-5α-pregnan-20-on-21-yl) thiosulfate] | 0.133 | 90 |
| C[C@]12CC[C@H]3[C@@H](CC[C@@H]4C[C@@](O)(C#CCCO)CC[C@@H]43)[C@@H]1CC[C@@H]2C(=O)Cn1ccnc1 [3α-Hydroxy-3β-(4-hydroxybutyn-1-yl)-21-(1-imidazolyl)-5β-19-norpregnan-20-one] | 0.098 | 98 |
| C[C@]12CC[C@@H](O)C[C@@H]1CC[C@@H]1[C@@H]2CC[C@]2(C)[C@@H](C(=O)Cn3ccnc3)CC[C@@H]12 [3α-hydroxy-21-(1'-imidazolyl)-5α-pregnan-20-one] | 0.071 | 99 |
| C[C@]12CC[C@](O)(C#CCCO)C[C@H]1CC[C@@H]1[C@@H]2CC[C@]2(C)[C@@H](C(=O)Cn3ccnc3)CC[C@@H]12 [3α-Hydroxy-3β-(4-hydroxybutyn-1-yl)-21-(1-imidazolyl)-5β-pregnan-20-one] | 0.054 | 93 |
| COc1ccc(C#CC2(O)CCC3(C)C(CCC4C3CCC3(C)C(C(C)=O)CCC43)C2)cc1OC (stereo not drawn) [3β-(3',4'-Dimethoxyphenylethynyl)-3α-hydroxy-5β-pregnan-20-one] | – | 106 |
| CC(=O)[C@H]1CC[C@H]2[C@@H]3CC[C@@H]4C[C@@](O)(C#CCCC(N)=O)CC[C@]4(C)[C@H]3CC[C@]12C [3β-(4'-Carboxamidobutynyl)-3α-hydroxy-5β-pregnan-20-one] | 2.34 | 102 |
| CC(=O)[C@H]1CC[C@H]2[C@@H]3CC[C@@H]4C[C@@](O)(C#Cc5ccc(F)cc5F)CC[C@]4(C)[C@H]3CC[C@]12C [3β-(2', 4'-difluorophenylethynyl)-3α-hydroxy-5β-pregnan-20-one] | 0.109 | 102 |
| CC(=O)OCC(=O)c1ccc(C#C[C@@]2(O)CC[C@@]3(C)[C@H](CC[C@@H]4[C@@H]3CC[C@]3(C)[C@@H](C(C)=O)CC[C@@H]43)C2)cc1 [3α-hydroxy-3β-(4'-acetoxyacetylphenylethynyl)-5β-pregnan-20-one] | 0.171 | 91 |
| C[C@]12C[C@H](O)[C@H]3[C@@H](CCC4=CC(=O)CC[C@@]43C)[C@@H]1CC[C@@H]2C(=O)CO [4-Pregnen-11β,21-diol-3,20-dione, reference compound] | > 1000 | 30 |
| C[C@]12CC[C@@H](O)C[C@H]1CC[C@@H]1[C@@H]2CC[C@]2(C)[C@@H](C(=O)Cn3cncn3)CC[C@@H]12 [3α-Hydroxy-21-(1',2',4'-triazol-1-yl)-5β-pregnan-20-one] | – | 60 |
| CC(=O)C1CCC2C3CCC4CC(O)(C#CCCO)CCC4(C)C3CCC12C (stereo not drawn) [3β-(4'-hydroxybutynyl)-3α-hydroxy-5α-pregnan-20-one] | – | 95 |
| C[C@]12CC[C@@H](O)C[C@@H]1CC[C@@H]1[C@@H]2CC[C@]2(C)[C@@H](C(=O)Cn3cccn3)CC[C@@H]12 [3α-hydroxy-21-(1'-pyrazolyl)-5α-pregnan-20-one] | 0.1 | 98 |
| CC(=O)c1cccc(C#C[C@@]2(O)CC[C@@]3(C)[C@H](CC[C@@H]4[C@@H]3CC[C@]3(C)[C@@H](C(C)=O)CC[C@@H]43)C2)c1 [3β-(3'-Acetylphenylethynyl)-3α-hydroxy-5β-pregnan-20-one] | 0.062 | 100 |
